One block for each compound: values may come before it.
How the values were obtained:
Conditions in all cases: Homo sapiens
[1] = Compound was tested for anti-HIV activity in normal peripheral blood mononuclear cells by inhibition of reverse transcriptase activity; format: functional
[2] = Compound was tested for anti-HIV activity in normal peripheral blood mononuclear cells by p24 production assay; format: functional
[3] = Compound was tested for anti-HIV activity in normal peripheral blood mononuclear cells by microculture tetrazolium assay; format: functional
[4] = Compound was tested for anti-HIV activity in normal peripheral blood mononuclear cells infected with HIV-1(RTMDR-1) virus by inhibition of reverse transcriptase activity; format: functional
CCRF-CEM [5] = assay: Compound was tested for anti-HIV activity in TK-deficient CEM cells by p24 production assay; format: functional, cell-based
CCRF-CEM [6] = assay: Compound was tested for anti-HIV activity in TK-deficient CEM cells by inhibition of reverse transcriptase activity; format: functional, cell-based
CCRF-CEM [7] = assay: Compound was tested for anti-HIV activity in TK-deficient CEM cells by microculture tetrazolium assay; format: functional, cell-based
[8] = Compound was tested for anti-HIV activity in normal peripheral blood mononuclear cells infected with HIV-2 virus by inhibition of reverse transcriptase activity; format: functional

Compound: COC(=O)C(C)NP(=O)(OC[C@@H]1C=C[C@H](n2cc(C)c(=O)[nH]c2=O)O1)Oc1ccc(Br)cc1 (some centres not stated) [STAMPIDINE]
IC50 [1]: 40 nM | IC50 [2]: 20 nM | IC50 [3]: > 10000 nM | IC50 [4]: 20 nM | IC50 (CCRF-CEM [5]): 40 nM | IC50 (CCRF-CEM [6]): 60 nM | IC50 (CCRF-CEM [7]): > 10000 nM | IC50 [8]: 400 nM

IC50 (CCRF-CEM [5]): 100 nM | IC50 (CCRF-CEM [6]): 300 nM | IC50 (CCRF-CEM [7]): > 10000 nM
Compound: COC(=O)C(C)NP(=O)(OC[C@@H]1C=C[C@H](n2cc(C)c(=O)[nH]c2=O)O1)Oc1ccc(OC)cc1 (some centres not stated)
IC50 [1]: 30 nM | IC50 [2]: 30 nM | IC50 [3]: > 10000 nM

Compound: Cc1cn([C@H]2C[C@H](N=[N+]=[N-])[C@@H](CO)O2)c(=O)[nH]c1=O (single isomer, unassigned) [ZIDOVUDINE]
IC50 [4]: 2000 nM | IC50 [8]: 2400 nM

IC50 (CCRF-CEM [5]): 600 nM | IC50 (CCRF-CEM [6]): 2400 nM | IC50 (CCRF-CEM [7]): > 10000 nM
Compound: Cc1cn([C@H]2C=C[C@@H](CO)O2)c(=O)[nH]c1=O [STAVUDINE]
IC50 [1]: 40 nM | IC50 [2]: 20 nM | IC50 [3]: > 10000 nM

Compound: COC(=O)C(C)NP(=O)(OC[C@@H]1C=C[C@H](n2cc(C)c(=O)[nH]c2=O)O1)Oc1ccccc1 (some centres not stated)
IC50 [3]: > 10000 nM | IC50 (CCRF-CEM [5]): 100 nM | IC50 (CCRF-CEM [6]): 100 nM | IC50 (CCRF-CEM [7]): > 10000 nM

Compound: COC(=O)C(C)NP(=O)(OC[C@H]1O[C@@H](n2cc(C)c(=O)[nH]c2=O)C[C@@H]1N=[N+]=[N-])Oc1ccc(Br)cc1 (some centres not stated)
IC50 [1]: 4 nM | IC50 [3]: > 10000 nM | IC50 [4]: 1500 nM | IC50 (CCRF-CEM [6]): 40 nM | IC50 (CCRF-CEM [7]): > 10000 nM | IC50 [8]: 3900 nM

Source: ChEMBL document CHEMBL1131269, “Enhancing effects of a mono-bromo substitution at the para position of the phenyl moiety on the metabolism and anti-HIV activity of d4T-phenyl methoxyalaninyl phosphate derivatives” (Bioorg Med Chem Lett, 1998)
